In US6403642B1, “Sulfur adsorbent for reducing onion or garlic breath odor” (PQ Holding, Inc., priority 1999, dated 2002):

Tests used:
[1] = Sulfur compound adsorption in the presence of mint oil (sniff test), hydrogen sulfide; settings: H2S 50 ppb, mint oil 50 ppb, adsorbent 0.1% w/v, 20 minutes of shaking, sniffed
Experimental: (§1) All dilution operations were done using water under nitrogen in capped bottles. Hydrogen sulfide was measured as a gas in a syringe and injected into a sealed bottle containing deoxygenated water. The concentration (ppb w/w) was calculated assuming all of the hydrogen sulfide (H2S) dissolved in the water after shaking, and using the density of the gas.
(§2) All of the liquid compounds were handled by syringe. Concentrations of thiols are reported assuming that their specific gravity is 1. Adsorbents, as made by Example 1, were weighed as dry powders into bottles before sealing and before the addition of room temperature dilute sulfide solution. After 20 minutes of shaking, the bottle was unsealed and the contents carefully sniffed.
(§3) The object of the experiment was to remove the thiol odor but not to remove the mint oil aroma.

[2] = Activity of metal complexes in removing garlic odor (sniffed for residual odor); set-up: key: ++: complete odor removal; +: slight odor remaining; −: no odor removal; NA: complex was not insoluble; ?: allyl mercaptan smell masked by methionine smell; settings: 5 ml solution with 627 nmol allyl mercaptan in water, sealed vial, 10 minutes, room temperature
Experimental: Each amino acid solution was made by dissolving 2.74 g of the amino acid into 40 ml of water. The complex with the metal was synthesized as described in the second step of Example 1.
Odor removal was tested using 5 ml of a solution containing 627 nmol of allyl mercaptan in water. A suspension of the metal complex was mixed with the mercaptan solution, reacted in a sealed vial for 10 minutes at room temperature, and then sniffed for residual odor.

[3] = Sulfur compound adsorption in the presence of mint oil (sniff test), allyl mercaptan; settings: Allyl mercaptan 5 ppb (w/v), mint oil 50 ppb, adsorbent 0.1% w/v, 20 minutes of shaking, sniffed
Experimental: as §1, §2, §3

[4] = Sulfur compound adsorption in the presence of mint oil (sniff test), propane thiol; settings: Propane thiol 5 ppb (w/v), mint oil 50 ppb, adsorbent 0.1% w/v, 20 minutes of shaking, sniffed
Experimental: as §1, §2, §3

[5] = Sulfur compound adsorption in the presence of mint oil (sniff test), diallyl disulfide; settings: Diallyl disulfide 5 ppb (w/v), mint oil 50 ppb, adsorbent 0.1% w/v, 20 minutes of shaking, sniffed
Experimental: as §1, §2, §3

Cystine-copper Complex
Smell Garlic, Effect [1]: None | Smell Mint, Effect [1]: strong | Activity in removing garlic odor [2]: ++ | Smell Garlic, Effect [3]: v. faint | Smell Garlic, Effect [4]: Faint | Smell Garlic, Effect [5]: v. weak
